These results are taken from patent US12570666B2, “Furoindazole derivatives” (Bayer Aktiengesellschaft, priority 2019, dated 2026).

The test concerns the target T1, human GPR84 receptor (Homo sapiens, UniProt Q9NQS5).
T1 construct: frozen aliquots prepared by acCELLerate; host or cells: CHO-K1
The experiment in a line: cAMP HTRF assay for identification of cellular GPR84 antagonists. To be noted: CHO-K1 cells stably expressing human GPR84; Forskolin + agonist 6-OAU (EC80); average or median values. In kind it is cell-based. From the text: cAMP HTRF® Assay for Identification of Cellular GPR84 Antagonists
By using a Homogenous Time-Resolved Fluorescence (HTRF®) based assay (#62AM5PEJ, Cisbio, Condolet, France) the inhibition of the Gi-coupled GPR84 receptor can be detected. CHO-K1 cells stably expressing human GPR84 receptor (purchased from DiscoveRx, now Eurofins) were used and treated with Forskolin (F6886, Sigma, Germany) to stimulate membrane adenylyl cyclases and thereby unspecific cAMP formation. Activation of the Gi-coupled GPR84 by a natural or small molecule agonist (e.g. 6-n-octyl aminouracile, inhouse) results in inhibition of cellular cAMP formation which can be released again by antagonists to this receptor. Detection and quantification of cellular cAMP levels in this HTRF assay is achieved by interaction between a fluorescent cAMP tracer (cAMP-d2) and an Eu-cryptate labelled anti-cAMP antibody. Following excitation at 337 nm this pairing allows for the generation of a fluorescence resonance energy transfer (FRET) between the partners and results in FRET induced emissions at 665 nm and 620 nm, the latter representing background signal by Eu-cryptate labelled anti-cAMP antibody. Maximal signal is obtained in the absence of any cellular cAMP (no competition for the binding of the tracer to the antibody). Given the combination of the Gi coupling properties of GPR84 and the competitive nature of the detection system agonist treatment should result in an increase in the HTRF signal due to lowered cAMP levels. Any signal decrease in the presence of Forskolin, agonist and compound is indicative of antagonist mediated abrogation of GPR84 signalling.
For the assay, frozen aliquots of CHO-K1 cells expressing hGPR84 (prepared by acCELLerate, Hamburg, Germany) were thawed and a cell suspension (1.67E+06 cells/mL) in assay media (Ham's F12 Nutrient Mix, Thermo Fisher Scientific, Waltham, USA; 5% fetal calf serum, Biomol, Hamburg, Germany) containing cAMP-d2 (dilution 1:20, supplied with the kit #62AM5PEJ, Cisbio, Condolet, France) was prepared. After recovery of cells for 20 minutes at 37° C., 3 μL/well cell suspension including cAMP-d2 were added to a pre-dispensed assay plate (Greiner Bio-One, Kremsmuenster, Austria) containing 50 nl/well test compound in 100% DMSO or 100% DMSO as control. This was followed by a 30 minutes incubation step at room temperature. […] The reaction was stopped by addition of 3 μL/well lysis buffer containing cAMP Eu-Cryptate antibody (dilution 1:20) (both supplied with the kit #62AM5PEJ, Cisbio, Condolet, France). To enable complete lysis, plates were incubated for 60 minutes at room temperature before measurement in an HTRF reader, e.g. a PHERAstar (BMG Labtech, Ortenberg, Germany).
From the fluorescence emissions at 665 nm (FRET) and at 620 nm (background signal of Eu-cryptate) the ratio (emission at 665 nm divided by emission at 620 nm×10000) was calculated and the data were normalized (reaction without test compound, only 100% DMSO=0% inhibition; all other assay components except agonist=100% inhibition). For dose response testing on the same microtiter plate, compounds were tested at 11 different concentrations in the range of 20 μM to 0.07 nM (20 μM, 5.7 μM, 1.6 μM, 0.47 μM, 0.13 μM, 38 nM, 11 nM, 3.1 nM, 0.89 nM, 0.25 and 0.07 nM; dilution series prepared before the assay at the level of the 100-fold conc. stock solutions by serial 1:3.5 dilutions in 100% DMSO) in duplicate values for each concentration. IC50 values were calculated by 4-parameter fitting using a commercial software package (Genedata Screener, Basel, Switzerland).
Examples were tested in selected biological assays one or more times. […]
In general terms: TR-FRET usually uses a lanthanide donor and a delayed reading to cut background.

T1 sequence (Q9NQS5 whole entry): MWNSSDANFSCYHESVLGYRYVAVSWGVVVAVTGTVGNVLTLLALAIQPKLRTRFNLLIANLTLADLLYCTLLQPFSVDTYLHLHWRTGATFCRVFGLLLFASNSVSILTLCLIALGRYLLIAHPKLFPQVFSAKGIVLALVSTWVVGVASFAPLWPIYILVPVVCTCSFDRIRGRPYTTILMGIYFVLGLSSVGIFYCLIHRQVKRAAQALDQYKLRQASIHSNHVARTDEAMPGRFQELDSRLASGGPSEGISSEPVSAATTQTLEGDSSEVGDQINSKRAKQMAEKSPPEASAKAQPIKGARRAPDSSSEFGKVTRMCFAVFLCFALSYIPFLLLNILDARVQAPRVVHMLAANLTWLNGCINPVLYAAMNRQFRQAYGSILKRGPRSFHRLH

For orientation: IC50 means the midpoint of a concentration-inhibition curve. With `O=C(NC[C@@H]1COCCO1)c1oc2c(c1C(F)(F)F)-c1nn(C[C@H]3COCCO3)cc1C1(CC1)C2` [Example 169, N-{[(2R)-1,4-dioxan-2-yl]methyl}-2′-{[(2S)-1,4-dioxan-2-yl]methyl}-8′-(trifluoromethyl)-2′,5′-dihydrospiro[cyclopropane-1,4′-furo[2,3-g]indazole]-7′-carboxamide], the IC50 stood at 13 nM.

Consider `Cc1c(C(=O)NCc2cc(C3CC3)on2)oc2c1-c1nn(CC3COc4ncccc4O3)cc1CC2` (single isomer, unassigned) [Example 50-1], for which the IC50 is 110 nM.

Take `Cc1c(C(=O)NC[C@@H]2COCCO2)oc2c1-c1nn(Cc3cccnn3)cc1CC2` [Example 185]: the IC50 is 551 nM.

For `Cc1c(C(=O)NC[C@@H]2CCCO2)oc2c1-c1nn(CCN)cc1CC2` [Example 160, 2-(2-aminoethyl)-8-methyl-N-[(2S)-tetrahydrofuran-2-ylmethyl]-4,5-dihydro-2H-furo[2,3-g]indazole-7-carboxamide], the IC50 stood at 2540 nM.

`Cc1cccc(Cn2cc3c(n2)-c2c(oc(C(=O)NCC4CCCO4)c2C)CC3)n1` (single isomer, unassigned) [Example 66-1]: the IC50 came to 63 nM.

With `CC1Cc2oc(C(=O)NC[C@@H]3CCCO3)c(C(F)(F)F)c2-c2nn(C[C@H]3COCCO3)cc21` (mixture of isomers) [Example 255, (4±)-2-{[(2S)-1,4-dioxan-2-yl]methyl}-4-methyl-N-{[(2S)-oxolan-2-yl]methyl}-8-(trifluoromethyl)-4,5-dihydro-2H-furo[2,3-g]indazole-7-carboxamide], the IC50 stood at 5 nM.

Take `Cc1c(C(=O)NC[C@H]2OCC[C@H]2C)oc2c1-c1nn(Cc3ccccn3)cc1CC2` (racemic) [Example 177]: the IC50 turned out to be 2600 nM.

For `Cc1c(C(=O)NC[C@@H]2CCCO2)oc2c1-c1nn(CC3CN(C(=O)OC(C)(C)C)C3)cc1CC2` [Example 109, tert-butyl 3-[(8-methyl-7-{[(2S)-tetrahydrofuran-2-ylmethyl]carbamoyl}-4,5-dihydro-2H-furo[2,3-g]indazol-2-yl)methyl]azetidine-1-carboxylate], the half-inhibitory concentration (IC50) was 11 nM.

For `Cc1ccc(Cn2cc3c(n2)-c2c(oc(C(=O)NC[C@@H]4CCCO4)c2C(F)(F)F)CC32CC2)cn1` [Example 213, 2′-[(6-methylpyridin-3-yl)methyl]-N-{[(2S)-oxolan-2-yl]methyl}-8′-(trifluoromethyl)-2′,5′-dihydrospiro[cyclopropane-1,4′-furo[2,3-g]indazole]-7′-carboxamide], the IC50 came out at 7 nM.

On to `Cc1c(C(=O)NC[C@@H]2COCCO2)oc2c1-c1nn(C[C@H]3COCCO3)cc1C1(CC1)C2` [Example 126], for which the IC50 is 39 nM.

Take `O=C(NC[C@H]1COCCO1)c1oc2c(c1C(F)(F)F)-c1nn(C[C@H]3COCCO3)cc1CC2` [Example 300, N,2-bis{[(2S)-1,4-dioxan-2-yl]methyl}-8-(trifluoromethyl)-4,5-dihydro-2H-furo[2,3-g]indazole-7-carboxamide]: the IC50 was 322 nM.

For the compound `CC1(C)CCC(CNC(=O)c2oc3c(c2C(F)(F)F)-c2nn(C[C@H]4COCCO4)cc2CC3)O1` (mixture of isomers) [Example 223, N-{[(2±)-5,5-dimethyloxolan-2-yl]methyl}-2-{[(2S)-1,4-dioxan-2-yl]methyl}-8-(trifluoromethyl)-4,5-dihydro-2H-furo[2,3-g]indazole-7-carboxamide], the IC50 turned out to be 23 nM.

As to `Cc1ccnc(CCNC(=O)c2oc3c(c2C(F)(F)F)-c2nn(C[C@H]4COCCO4)cc2CC3)c1` [Example 231, 2-[(2S)-1,4-Dioxan-2-ylmethyl]-N-[2-(4-methylpyridin-2-yl)ethyl]-8-(trifluormethyl)-4,5-dihydro-2H-furo[2,3-g]indazol-7-carboxamide], the IC50 worked out at 1390 nM.

For the compound `C[C@@H]1Cc2oc(C(=O)NC[C@@H]3COCCO3)c(C(F)(F)F)c2-c2nn(CC3CCOCC3)cc21` (single isomer, unassigned) [Example 263, (4R or 4S)-N-{[(2R)-1,4-dioxan-2-yl]methyl}-4-methyl-2-[(oxan-4-yl)methyl]-8-(trifluoromethyl)-4,5-dihydro-2H-furo[2,3-g]indazole-7-carboxamide], the IC50 is 13 nM.

On to `Cc1c(C(=O)NC[C@@H]2COCCO2)oc2c1-c1nn(CC3CN(C(=O)OC(C)(C)C)C3)cc1CC2` [Example 110, tert-butyl 3-[(7-{[(2R)-1,4-dioxan-2-ylmethyl]carbamoyl}-8-methyl-4,5-dihydro-2H-furo[2,3-g]indazol-2-yl)methyl]azetidine-1-carboxylate], for which the IC50 is 10 nM.

As for `Cc1c(C(=O)NC[C@@H]2CCCO2)oc2c1-c1nn(CC3(F)CN(C(=O)OCc4ccccc4)C3)cc1CC2` [Example 155, benzyl 3-fluoro-3-[(8-methyl-7-{[(2S)-tetrahydrofuran-2-ylmethyl]carbamoyl}-4,5-dihydro-2H-furo[2,3-g]indazol-2-yl)methyl]azetidine-1-carboxylate], the IC50 stood at 13 nM.

In the case of `Cc1c(C(=O)NC[C@@H]2CCCO2)oc2c1-c1nn(CCN3CCN(C(=O)OC(C)(C)C)CC3)cc1CC2` [Example 141, tert-butyl 4-[2-(8-methyl-7-{[(2S)-tetrahydrofuran-2-ylmethyl]carbamoyl}-4,5-dihydro-2H-furo[2,3-g]indazol-2-yl)ethyl]piperazine-1-carboxylate], the IC50 came out at 700 nM.

For the compound `Cc1c(C(=O)NCc2nnc[nH]2)oc2c1-c1nn(Cc3ccccn3)cc1CC2` [Example 20, 8-methyl-2-(pyridin-2-ylmethyl)-N-(4H-1,2,4-triazol-3-ylmethyl)-4,5-dihydro-2H-furo[2,3-g]indazole-7-carboxamide], the IC50 is 5070 nM.

On to `O=C(NC[C@@H]1CCCO1)c1oc2c(c1C(F)(F)F)-c1nn(CC3CCOCC3)cc1CC2` [Example 243, 2-[(oxan-4-yl)methyl]-N-{[(2S)-oxolan-2-yl]methyl}-8-(trifluoromethyl)-4,5-dihydro-2H-furo[2,3-g]indazole-7-carboxamide], for which the IC50 was found to be 26 nM.

For the compound `Cc1c(C(=O)NC[C@@H]2CCCO2)oc2c1-c1nn(Cc3cccnn3)cc1CC2` [Example 184], the IC50 was 447 nM.

Take `Cc1c(C(=O)NCc2cc(C(C)C)on2)oc2c1-c1nn(Cc3ccccn3)cc1CC2` [Example 18, N-[(5-isopropyl-1,2-oxazol-3-yl)methyl]-8-methyl-2-(pyridin-2-ylmethyl)-4,5-dihydro-2H-furo[2,3-g]indazole-7-carboxamide]: the IC50 stood at 97 nM.

For `C[C@@H]1Cc2oc(C(=O)NCc3cnc(Cl)cn3)c(C(F)(F)F)c2-c2nn(C[C@H]3COCCO3)cc21` (single isomer, unassigned) [Example 323, (4R or 4S)—N-[(5-chloropyrazin-2-yl)methyl]-2-{[(2S)-1,4-dioxan-2-yl]methyl}-4-methyl-8-(trifluoromethyl)-4,5-dihydro-2H-furo[2,3-g]indazole-7-carboxamide], the IC50 came to 3 nM.

For `Cc1c(C(=O)NC[C@@H]2CCCO2)oc2c1-c1nn(C[C@H]3COCCO3)cc1CC2` [Example 89, 2-[(2S)-1,4-dioxan-2-ylmethyl]-8-methyl-N-[(2S)-tetrahydrofuran-2-ylmethyl]-4,5-dihydro-2H-furo[2,3-g]indazole-7-carboxamide], the IC50 turned out to be 40 nM.

For the compound `O=C(NC[C@@H]1COCCO1)c1oc2c(c1C(F)(F)F)-c1nn(Cc3ccncc3)cc1C1(CCC1)C2` [Example 281, N-[(2R)-1,4-Dioxan-2-ylmethyl]-2′-(pyridin-4-ylmethyl)-8′-(trifluormethyl)-2′,5′-dihydrospiro[cyclobutan-1,4′-furo[2,3-g]indazol]-7′-carboxamide], the concentration for half-maximal inhibition (IC50) was 21 nM.
